Data: publication PMC10316653 (iScience, 2023)
Read-outs that look alike come from different tables or passages of the source. *1 amine or outer side, *2 acyl side, *3 side chain or, on linkers, in order; H or OH if unused. Where a SMILES comes first, the peptide text is derived from it. Bridges are numbered along the chain shown (N, C = ends). [ ]: non-standard residue; d: D form. X1 = CC(=O)NC(C(=O)OC(C(C)C)C(N[*:1])C(=O)[*:2])C(O)C(C)C; PhLac = O=C(O)[CH](O)Cc1ccccc1; NMeT = CN[CH](C(=O)O)[CH](C)O; NMeA = CN[CH](C)C(=O)O; NMeDha = C=C(NC)C(=O)O

Columns and labels:
recombinant rat A2BAR = biological target: T1, recombinant rat A2BAR (Rattus norvegicus, UniProt P29276); assay: cAMP accumulation in H9C2 cells expressing the recombinant rat A2BAR; type: cell-based; conditions: H9C2 cells with rat A2BAR expression, 0.3 μg/well
T1 sequence (P29276 1-332): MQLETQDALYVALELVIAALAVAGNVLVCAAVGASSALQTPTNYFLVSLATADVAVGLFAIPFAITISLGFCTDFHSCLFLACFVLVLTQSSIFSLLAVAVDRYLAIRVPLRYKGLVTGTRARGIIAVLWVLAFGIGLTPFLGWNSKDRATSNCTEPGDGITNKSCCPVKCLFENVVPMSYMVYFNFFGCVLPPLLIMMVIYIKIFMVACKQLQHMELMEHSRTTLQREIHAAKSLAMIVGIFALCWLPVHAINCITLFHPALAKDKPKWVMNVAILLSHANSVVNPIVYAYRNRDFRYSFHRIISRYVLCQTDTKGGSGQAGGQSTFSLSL

A2BAR [1] = biological target: T2, A2BAR (Rattus norvegicus, UniProt P29276); assay: cAMP accumulation assay in H9C2 cells endogenously expressing the A2BAR; type: cell-based; conditions: for effect on PMA-induced cAMP accumulation: antagonist 1 µM
T2 sequence (P29276 1-332): T1 sequence (P29276 1-332)

A2BAR [2] = biological target: T3, A2BAR (Homo sapiens, UniProt P29275); assay: Radioligand binding to membranes from HEK293-A2B cells; conditions: for displacement of specific binding of [3H]NECA (25 nM): membranes from HEK293-A2B cells, 1 μM
T3 sequence (P29275 1-332): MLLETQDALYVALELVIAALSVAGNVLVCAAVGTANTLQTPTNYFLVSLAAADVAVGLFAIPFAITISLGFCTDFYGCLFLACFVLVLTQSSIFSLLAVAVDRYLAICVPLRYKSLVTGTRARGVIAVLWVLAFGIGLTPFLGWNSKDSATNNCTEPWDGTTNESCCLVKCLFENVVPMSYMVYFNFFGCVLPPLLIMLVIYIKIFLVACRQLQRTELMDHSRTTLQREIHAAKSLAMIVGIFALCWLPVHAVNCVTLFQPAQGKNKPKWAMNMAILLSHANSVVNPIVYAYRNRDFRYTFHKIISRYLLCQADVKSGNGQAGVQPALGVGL

A2BAR [3] = biological target: T3, A2BAR; assay: cAMP accumulation in Gi-null HEK293 cells; type: cell-based; conditions: PMA 1 μM 40 min
A2BAR [4] = biological target: T3, A2BAR; assay: cAMP accumulation assay in HEK293-A2B cells; type: cell-based; conditions: for effect on PKC-induced A2BAR activation (cAMP): inhibitor 20 min before PMA (Figure 10C)
A2BAR [5] = biological target: T3, A2BAR; assay: cAMP accumulation assay in naive HEK293 cells; type: cell-based
ERK1/2 = ERK1/2 activity assay in H9C2 cells; type: cell-based, rat; conditions: for effect on PMA-induced ERK1/2 phosphorylation: 1 μM added 20 min before PMA 1 μM
A2BAR [6] = biological target: T3, A2BAR; assay: Intracellular calcium mobilization assay in HEK293-A2B cells; type: cell-based; conditions: for effect on NECA-induced intracellular calcium mobilization: 1 μM pretreatment 20 min
A2BAR [7] = biological target: T3, A2BAR; type: cell-based
H9C2 cells = assay: Intracellular calcium mobilization assay in H9C2 cells; type: cell-based, rat; conditions: for inhibition of UTP-induced calcium response: 1 μM pretreatment 20 min
A2BAR [8] = biological target: T3, A2BAR; assay: cAMP accumulation in Gi-null HEK293-A2B cells; type: cell-based; conditions: read-out: Emax of cAMP accumulation (10 μM forskolin in HEK293-A2B = 100%)
adenylyl cyclase = assay: Forskolin-stimulated cAMP accumulation in H9C2 cells; type: cell-based, rat; conditions: PMA 1 μM 40 min, forskolin 10 μM
A2BAR [9] = biological target: T4, A2BAR (Mus musculus, UniProt Q60614); assay: cAMP accumulation in NIH3T3 cells endogenously expressing the A2BAR; type: cell-based; conditions: 20 min
T4 sequence (Q60614 1-332): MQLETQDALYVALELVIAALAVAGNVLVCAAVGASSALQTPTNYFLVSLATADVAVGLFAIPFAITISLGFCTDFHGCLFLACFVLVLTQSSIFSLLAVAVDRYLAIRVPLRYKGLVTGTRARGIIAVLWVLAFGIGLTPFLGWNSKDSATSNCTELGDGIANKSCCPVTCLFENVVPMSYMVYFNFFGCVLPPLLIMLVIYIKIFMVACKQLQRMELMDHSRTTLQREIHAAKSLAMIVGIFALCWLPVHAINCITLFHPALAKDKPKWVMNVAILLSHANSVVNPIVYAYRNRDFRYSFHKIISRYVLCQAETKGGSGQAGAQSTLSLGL

A1AR = biological target: T5, A1AR (Rattus norvegicus, UniProt P25099); assay: A1AR-mediated inhibition of forskolin-stimulated cAMP accumulation in H9C2 cells; type: cell-based
T5 sequence (P25099 1-326): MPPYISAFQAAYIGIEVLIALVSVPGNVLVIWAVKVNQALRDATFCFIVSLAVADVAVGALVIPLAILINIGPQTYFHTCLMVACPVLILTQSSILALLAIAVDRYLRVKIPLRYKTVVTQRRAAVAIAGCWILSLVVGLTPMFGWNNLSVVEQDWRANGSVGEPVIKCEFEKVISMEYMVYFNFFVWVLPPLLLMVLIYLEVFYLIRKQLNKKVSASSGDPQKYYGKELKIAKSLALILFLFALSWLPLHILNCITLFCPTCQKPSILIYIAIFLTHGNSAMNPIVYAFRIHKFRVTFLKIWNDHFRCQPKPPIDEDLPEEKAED

[10] = HEK293-A2B cells treated with PMA 1 μM 40 min
[11] = naive HEK293 cells, inhibitor 1 μM, PMA 1 μM, BAY 10 μM

CCCCCCCCCCCCCC(=O)O[C@@H]1[C@@H](C)[C@@]2(O)[C@@H](C=C(CO)C[C@]3(O)C(=O)C(C)=C[C@@H]23)[C@@H]2C(C)(C)[C@]12OC(C)=O [PMA, phorbol 12-myristate 13-acetate]
maximal cAMP level (10 μM NECA = 100%) (recombinant rat A2BAR): 65.4 ± 8.0%
enhancement of A2BAR agonist-induced cAMP accumulation (A2BAR [1]; H9C2 cells, PMA 1 nM pretreatment 40 min): 25%
Emax of cAMP accumulation relative to NECA (A2BAR [1]; naive H9C2 cells, 5 min (Figure S10)): about 20 % of NECA
maximal cAMP level (10 μM NECA = 100%) (A2BAR [1]; naive H9C2 cells, 20 min (Figure 7C)): 20.0 ± 0.36%
EC50 (A2BAR [1]; potency of enhancing effect on A2BAR-mediated cAMP accumulation, H9C2 cells): ~1 nM
effect of treatment on agonist [3H]NECA binding (A2BAR [2]; [10]): significantly increased agonist binding
effect of treatment on antagonist [3H]DPCPX binding (A2BAR [2]; [10]): did not affect
displacement of specific binding of [3H]NECA (25 nM) (A2BAR [2]): 1.6 ± 1.2%
enhancement of the function of BAY (cAMP accumulation) (A2BAR [3]): 37%
EC50 (A2BAR [4]; EC50, cAMP accumulation, HEK293-A2B cells, incubated 60 min): 56.4 nM
effect of pretreatment on NECA- or BAY-induced cAMP accumulation (A2BAR [4]; HEK293-A2B cells, PMA 40 min): raised the basal cAMP level but not the Emax
Emax (A2BAR [4]; read-out: activation Emax (Emax of NECA = 100%)): 84.7%
Emax (A2BAR [5]; HEK293, read-out: maximal stimulation relative to Emax of NECA): < 10%
maximal agonist effect (10 μM NECA = 100%) (A2BAR [5]; naive HEK293 cells, 20 min (Figure 7D)): 7.36 ± 1.08%
enhancement of the function of BAY (cAMP accumulation) (A2BAR [5]; wild-type HEK293 cells, PMA 1 μM 40 min): 95%
ERK1/2 phosphorylation (ERK1/2; PMA 1 μM, sustained over 30 min): > 300 % above baseline
induction of calcium mobilization (A2BAR [6]): did not induce calcium mobilization
effect on NECA-induced intracellular calcium mobilization (A2BAR [6]): inhibited
Emax (A2BAR [7]; HEK293, read-out: Emax of cAMP accumulation (10 μM forskolin = 100%)): 49.3 ± 4.6%
maximal agonist effect (10 μM NECA = 100%) (A2BAR [7]; HEK293 cells with recombinant human A2BAR expression, 0.3 μg/well): 35.5 ± 5.0%
inhibition of UTP-induced calcium response (H9C2 cells): completely inhibited
Emax (A2BAR [8]): 19.3 ± 3.1%
effect of pretreatment on forskolin-stimulated cAMP accumulation (adenylyl cyclase): did not inhibit or enhance
cAMP accumulation versus NECA = 100% (A2BAR [9]): 34.9 ± 7.7%

CCCn1c(=O)[nH]c2nc(-c3ccc(S(=O)(=O)N4CCN(c5ccc(Cl)cc5)CC4)cc3)[nH]c2c1=O [PSB603]
effect on PMA-induced cAMP accumulation (A2BAR [1]; naive H9C2 cells): inhibited
effect on PMA-induced ERK1/2 phosphorylation (ERK1/2): not affected
effect on NECA-induced intracellular calcium mobilization (A2BAR [6]): inhibited

COc1ccc2c(c1)c(C1=C(c3c[nH]c4ccccc34)C(=O)NC1=O)cn2CCCN(C)C [GO6983]
effect on BAY-induced cAMP accumulation (A2BAR [1]; H9C2 cells, 1 μM, no PMA): did not affect BAY-induced cAMP accumulation
effect on PKC- and NECA-induced cAMP accumulation (A2BAR [4]; HEK293-A2B cells, GO6983 1 μM): blocked PKC- but not NECA-induced cAMP accumulation
effect on PKC-induced A2BAR activation (cAMP) (A2BAR [4]; HEK293-A2B cells): significantly inhibited
effect on PKC (PMA)-induced enhancement of BAY-induced cAMP accumulation (A2BAR [5]; [11]): blocked PKC-induced enhancement
effect on PMA-induced ERK1/2 phosphorylation (ERK1/2): diminished
effect on PMA inhibition of NECA-induced calcium mobilization (A2BAR [6]; GO6983 1 μM before PMA 1 μM): completely blocked
effect on PMA inhibition of UTP calcium response (H9C2 cells; GO6983 1 μM 20 min before PMA 1 μM): completely reversed

OC1C(CCl)OC(n2cnc3c(NC4CC5CCC4C5)ncnc32)C1O (stereo not shown) [Cl-ENBA]
inhibited cAMP accumulation stimulated by forskolin (A1AR; 1 μM, forskolin 10 μM): neither
inhibition of forskolin's effect on cAMP (A1AR; range of concentrations (Figure S1)): unable to inhibit forskolin’s effect

CCNC(=O)[C@H]1O[C@@H](n2cnc3c(N)ncnc32)[C@H](O)[C@@H]1O [NECA, adenosine-5′-N-ethyluronamide]
induction of calcium mobilization (H9C2 cells): did not induce calcium mobilization

O=c1ccn([C@@H]2O[C@H](COP(=O)(O)OP(=O)(O)OP(=O)(O)O)[C@@H](O)[C@H]2O)c(=O)[nH]1 [UTP]
induction of calcium mobilization (H9C2 cells): induced a robust calcium response

CN(C)CCCn1cc(C2=C(c3c[nH]c4ccccc34)C(=O)NC2=O)c2ccccc21 [GF109203X]
effect on PKC-induced A2BAR activation (cAMP) (A2BAR [4]; HEK293-A2B cells): significantly inhibited
remaining enhancement (A2BAR [5]; naive HEK293 cells, in the presence of 1 μM GF109203X): 26%
effect on PKC (PMA)-induced enhancement of BAY-induced cAMP accumulation (A2BAR [5]; [11]): blocked PKC-induced enhancement
inhibition of PKC-induced enhancement of BAY-induced cAMP accumulation (A2BAR [5]; [11]): 74%

CSc1nc(N)c2ncn([C@H]3[C@H](O)[C@H](O)[C@]4(COP(=O)([O-])OP(=O)([O-])[O-])C[C@H]34)c2n1.[Na+].[Na+].[Na+] [MRS2365, [[(1R,2R,3S,4R,5S)-4-[6-amino-2-(methylthio)-9H-purin-9-yl]-2,3-dihydroxybicyclo[3.1.0]hex-1-yl]methyl] diphosphoric acid monoester trisodium salt]
effect of pretreatment on A2BAR (NECA)-mediated cAMP accumulation (A2BAR [4]; HEK293-A2B cells, 1 μM, 20 min before NECA): did not show any effect

CCCn1c(=O)c2[nH]c(-c3ccc(OCC(=O)Nc4ccc(C#N)cc4)cc3)nc2n(CCC)c1=O [MRS1754]
effect on PMA-induced cAMP accumulation (A2BAR [1]; naive H9C2 cells): inhibited
displacement of specific binding of [3H]NECA (25 nM) (A2BAR [2]): 100%
KB against BAY more potent than IC50 against PKC (A2BAR [4]; HEK293-A2B cells): over 100 fold

O=S(=O)(NCCNC/C=C/c1ccc(Br)cc1)c1cccc2cnccc12 [H89]
effect on PMA enhancement of cAMP accumulation (A2BAR [5]; HEK293 cells, H89 10 μM, PMA 1 μM): unaffected
effect on PMA-induced ERK1/2 phosphorylation (ERK1/2): not affected

CC(C)[C@H]1C(=O)N[C@H](CO)Cc2cc(NC(=O)/C=C/C=C/c3ccc(C(F)(F)F)cc3)ccc2N1C [TPPB]
effect of pretreatment on BAY-induced cAMP accumulation (A2BAR [5]; HEK293 cells, TPPB 1 µM 40 min): also enhanced the function of BAY

N#Cc1c(N)nc(SCC(N)=O)c(C#N)c1-c1ccc(OCC2CC2)cc1 [BAY]
induction of cAMP accumulation (A2BAR [1]; H9C2 cells, agonist 20 min): induced robust cAMP accumulation

CN(C)C[C@H]1CCn2c(c(C3=C(c4cn(C)c5ccccc45)C(=O)NC3=O)c3ccccc32)C1 [RO320432]
effect on PKC (PMA)-induced enhancement of BAY-induced cAMP accumulation (A2BAR [5]; [11]): blocked PKC-induced enhancement

C=C1C(=O)NC(C)C(=O)N(C)C(C)C(=O)NC(C(OC(=O)C(NC(C)=O)C(O)C(C)C)C(C)C)C(=O)N(C)C(C(C)OC)C(=O)OC(C)C(NC(C)=O)C(=O)OC(Cc2ccccc2)C(=O)N1C (stereo not shown) [YM254890] (Ac-T[PhLac][NMeDha]A[NMeA][X1][NMeT](Me); ester 1-C; configuration not given here)
inhibition of UTP-induced calcium response (H9C2 cells): completely inhibited
